Legend:
[1] = system: aldosterone/salt uninephrectomized rats; experiment: Myocardial injury in aldosterone/salt uninephrectomized rats (Example A-6); type: in vivo, Sprague Dawley rats; conditions: eplerenone in chow 100 mg/k/d; aldosterone 0.75 ug/hr, 1% NaCl
Description: The rats were then implanted with Alzet mini pump that subcutaneously delivered either aldosterone (0.75 ug/hr) or vehicle. […] Blood pressure was measured by radio telemetry units implanted in abdominal aorta. Rats were sacrificed for examination of the hearts.

[2] = Pharmacokinetics and absorption of [14C]eplerenone in the rat (Example A-9); type: in vivo; conditions: for Cmax: rat, oral 15 mg/kg
Description: Plasma, urine and fecal samples were analyzed for total radioactivity.

[3] = system: patients with mild to moderate hypertension; experiment: Eplerenone/HCTZ dose ranging factorial design study (Example D-2); type: in vivo, human
Description: Patients were assessed at weeks 0, 2, 4, and 8. Study assessments at protocol-specified timepoints included blood pressure (BP), heart rate, clinical laboratory analyses, vital signs, physical examinations, 12-lead ECG, and monitoring of adverse events. A total of 614 patients were randomized.

[4] = Pharmacokinetics in moderate hepatic impairment vs matched normal subjects (Example A-13); conditions: for AUC / Cmax / AUC(0-inf) / half-life / Tmax: human, plasma, 400 mg; for AUC(0-inf): Single Dose AUC(0-∞), linear kinetics assessment; for half-life: T1/2, Mean;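 on all read-outs here: impaired subjects were Child-Pugh Class B with ascites, compared against healthy volunteers matched for sex, age, weight and smoking, blood sampled before and after dosing on Days 1 and 7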
[5] = system: patients with low-renin hypertension; experiment: Eplerenone versus losartan in low-renin hypertension, 16 weeks (Examples A-16, D-5); type: in vivo, human
Excerpt: Patients will continue on therapy until Week 16. Table […] illustrates the above-described dosing scheme. […] Plasma renin will be determined at screening; serum aldosterone, plasma renin, and plasma cortisol will be determined at Weeks 0, 8, and 16. […] A 12-lead electrocardiogram will be done at Weeks 0 and 16. Physical examinations will be completed at screening and at Week 16. […] Secondary measures of efficacy will be the following: […] Study design is illustrated in FIG. D-16. […] At Weeks 8 and 16, BP, RAAS hormone profile, and safety were assessed.

saline-drinking SHRSP = experiment: Renal pathologic changes in saline-drinking SHRSP, Protocol 1 (Example A-8); type: in vivo, rat (SHRSP/A3N)
Description: Animals. Studies were conducted in accordance with institutional guidelines using male […] (generations […]-78), n=37, from our local colony. These animals were bred from NIH stock, derived from the […] substrain described originally by Okamoto and coworkers (Okamoto K et al. Circ. […] All animals were housed in a room maintained on a 12:12-h light:dark-cycle and an ambient temperature of 22±1° C. in the Animal Care Facility at New York Medical College. Rats were weaned at 4 weeks of age and allowed free access to Purina Lab Chow 5001 (Ralston Purina, St. Louis, Mo.) and tap water until the initiation of experimental protocols. […] Animals were examined each day for neurologic signs of stroke. Systolic arterial pressure and heart rate were measured each week in awake rats. […] Trunk blood was collected into chilled EDTA tubes following rapid decapitation of the animals between 10:00 am and 12:00 pm. Blood was stored at -20° C. for later measurement of plasma aldosterone levels. The kidneys were rapidly removed, weighed, and then preserved in fixative for later histologic examination. Assays and Analyses. Systolic blood pressure and heart rate of awake animals were measured by tail-cuff plethysmography using a Natsume KN-210 manometer and tachometer (Peninsula Laboratories Inc., Belmont, Calif.). Rats were warmed at 37° C. for 10 min and allowed to rest quietly in a Lucite chamber before measurement of blood pressure. Measurements of urine volume were made gravimetrically. Urinary protein concentration was determined by the sulfosalicylic acid turbidity method. Plasma aldosterone was measured by radioimmunoassay using ^125I-aldosterone as a tracer (Coat-a Count Aldosterone, Diagnostic Products Co., Los Angeles, Calif.). Histology. […] Coronal sections (2-3 μm) were stained with hematoxylin and eosin and examined by light microscopy in a blinded fashion as previously described ([…] et al. […] Glomerular damage was categorized as ischemic or thrombotic. Ischemic lesions were defined as retraction of glomerular capillary tufts with or without appreciable mesangiolysis. […] The presence of casts and tubular (ischemic) retraction and simplification was assessed semiquantitatively. […] Significant effects with respect to treatment and time were determined by two-way analysis of variance. Data with only one grouping variable were analyzed statistically by Student's unpaired t tests. […] Data were analyzed using version 2.01 of the GraphPad Prism statistical software package (GraphPad Software Inc., San Diego, Calif.). […]

[6] = eplerenone 25, 50 or 200 mg daily, HCTZ 12.5 or 25 mg daily, 8 weeks
[7] = Mean, Multiple Dose 400 mg QD, Normal
[8] = Mean, Single Dose 400 mg, Normal
[9] = Mean, Multiple Dose 400 mg QD, Moderate
[10] = Mean, Single Dose 400 mg, Moderate
[11] = least squares mean, Multiple Dose 400 mg QD, Moderate Impairment
[12] = least squares mean, Single Dose 400 mg, Moderate Impairment
[13] = Week 8 (monotherapy), EPL 100-200 mg QD, LOS 50-100 mg QD
[14] = Week 16, after allowed addition of HCTZ

With `COC(=O)[C@@H]1CC2=CC(=O)CC[C@]2(C)[C@@]23O[C@@H]2C[C@@]2(C)[C@@H](CC[C@@]24CCC(=O)O4)[C@H]13` [Eplerenone, Pregn-4-ene-7,21-dicarboxylic acid, 9,11-epoxy-17-hydroxy-3-oxo-, γ-lactone, methyl ester, (7α, 11α, 17β)-] the cardiac histopathologic damage [1] was “prevents the histopathologic damage”, the “time of peak plasma concentration of total radioactivity” value ([2]; oral aqueous solution 15 mg/kg, male rat) was 1.1 h and the clearance ([2]; plasma, IV 15 mg/kg, male rat) was 20.3 mL/min/kg. For the same compound, the half-life ([2]; plasma, IV 15 mg/kg, male rat) was 48.2 min, the Cmax ([2]; plasma, female rats) was 3540 ng/mL and the Cmax ([2]; plasma, male rats) was 1710 ng/mL. For the same compound, the gynecomastia ([3]; eight weeks) was “Gynecomastia was not observed”, the safety and tolerability ([3]; eight weeks, monotherapy or in combination with HCTZ) was “safe and well tolerated” and the “DBP, change from Baseline to the Final Visit” value [3, 6] was “dose-dependent decreases in DBP”. The “SBP, change from Baseline to the Final Visit” value [3, 6] was “dose-dependent decreases in SBP”, the “time to steady-state concentrations” value ([4]; 400 mg QD dosing, both subject groups) was “by the fourth day” and the “mean AUC higher in moderate impairment than matched normal subjects” value ([4]; following single dosing) was 41-50%. It also gave an AUC ([4]; Mean, Multiple Dose 400 mg QD, Moderate hepatic impairment) of 48800 ng·h/mL, an AUC [4, 7] of 33800 ng·h/mL and an AUC ([4]; Mean, Single Dose 400 mg, Moderate hepatic impairment) of 51400 ng·h/mL. For the same compound, the AUC [4, 8] was 31000 ng·h/mL, the Cmax [4, 9] was 4170 ng/mL and the Cmax [4, 7] was 3880 ng/mL. For the same compound, the Cmax [4, 10] was 3790 ng/mL, the Cmax [4, 8] was 3840 ng/mL and the Cmax [4, 11] was 3810 ng/mL. For the same compound, the Cmax ([4]; least squares mean, Multiple Dose 400 mg QD, Normal) was 3670 ng/mL, the Cmax [4, 12] was 3410 ng/mL and the Cmax ([4]; least squares mean, Single Dose 400 mg, Normal) was 3810 ng/mL. The AUC(0-inf) ([4]; Moderate Hepatic Impairment) was 49800 ng·h/mL, the AUC(0-inf) ([4]; Normal) was 28700 ng·h/mL and the half-life ([4]; Multiple Dose 400 mg QD, Moderate) was 484 min. For the same compound, the half-life ([4]; Multiple Dose 400 mg QD, Normal) was 457 min, the half-life ([4]; Single Dose 400 mg, Moderate) was 407 min and the half-life ([4]; Single Dose 400 mg, Normal) was 379 min. It also gave a Tmax [4, 9] of 2.81 h, a Tmax [4, 10] of 2.56 h and a Tmax [4, 8] of 2.03 h. The Tmax [4, 11] was 2.9 h, the Tmax [4, 12] was 2.7 h and the “cumulative percentage of patients requiring HCTZ add-on therapy” value ([5]; 16 weeks) was 32.5%. For the same compound, the “increase in active renin levels” value ([5]; Week 8) was “+50.1%”, the “increase in serum aldosterone levels” value ([5]; Week 8) was “+74.7%” and the “mean change from baseline in DBP” value [5, 13] was −9.3 mmHg. The “mean change from baseline in SBP” value [5, 13] was −15.8 mmHg, the “increase in active renin levels” value ([5]; Week 16) was “+73.0%” and the “increase in serum aldosterone levels” value ([5]; Week 16) was “+89.8%”. The “mean change from baseline in DBP” value [5, 14] was −10.8 mmHg, the “mean change from baseline in SBP” value [5, 14] was −18.3 mmHg and the safety and tolerability ([5]; in vivo) was “safe and well tolerated”. For the same compound, the “Glomerular damage, Total” value (saline-drinking SHRSP; 100 mg/kg/d by gavage, 8.4 to 13.1 weeks of age) was “only rare instances of ischemic or thrombotic glomeruli”, the “plasma concentration of aldosterone” value (saline-drinking SHRSP; 100 mg/kg/d, 5 weeks) was 315 ± 35 pg/mL and the signs of stroke (saline-drinking SHRSP; 100 mg/kg/d, 5 weeks) was “none of eplerenone-treated SHRSP showed evidence of stroke”. For the same compound, the “tubules with ischemic retraction and simplification” value (saline-drinking SHRSP; 100 mg/kg/d, 5 weeks) was 0.5±0.2%.
